# Test results: patent publication US7101902B2, “2-guanidinylimidazolidinedione compounds and methods of making and using thereof” (The United States of America as represented by the …, priority 2003, dated 2006)
# Values joined by “and” are separate entries in the source; they are usually repeats but may differ in a detail not shown here. Equal values may be shown once. “Also recorded” adds a separate entry of the source.
# Experiments:
# P. cynomolgi sporozoites = test: Oral causal prophylactic assay in Rhesus monkey (compound 3 IM; 4b and 3c PO); assay type: in vivo, Plasmodium cynomolgi; conditions: per monkey
# Experimental: To test the causal prophylactic intramuscular potency of the purified isomer of compound 3 and oral potency of two carbamate derivatives of 2-guanidinylimidazolidinedione (4b and 3c) the following assay was conducted.
# Fourteen rhesus monkeys were issued.
# A donor monkey was inoculated intravenously with 1.3 ml, freshly-thawed frozen infected red blood cell (DA310). When the monkey developed gametocytemia, mosquito feedings were conducted on days 15 and 16 after inoculation. The donor monkey was treated with intramuscular chloroquine hydrochloride (CQ) 10 mg/kg, once a day after the second mosquito feeding and continued for 6 days.
# On day 0 of the beginning of the assay, each of the 14 monkeys was inoculated intravenously with 1-ml inoculum of suspension containing about 1.0×10^6 P. cynomolgi sporozoites harvested from Anopheles dirus mosquitoes' salivary glands previously fed on the donor monkey.
# All monkeys received treatment on days −1, 0 and 1. The control monkeys (Group 1) received HECT orally and the experimental animals received testing compound intramuscularly (Groups 2 and 3) or orally (Groups 4 to 7).
# [1] = Solubility and characteristics of the compounds in the dosing vehicle; assay type: physicochemical; conditions: vehicle DMSO
# Plasmodium yoelii (17×) = test: Sporozoite induced test in mouse (causal prophylactic activity); assay type: in vivo; conditions: sporozoite challenged CD-1 mice; single dose 4 hours before inoculation; oral administration
# Experimental: The causal prophylactic antimalarial activity of the new carbamate derivatives were assessed in a sporozoites challenged mouse model according to the following protocol and the results are shown in Table 4 and Table 5.
# Each compound was ground with a mortar and pestle and suspended in 0.5% hydroxyethylcellulose and 0.1% Tween 80 for compounds to be administered PO and those given SC were suspended in peanut oil. Each compound is prepared at 3 different dose levels.
# Compounds were administered either PO or SC to mice once 4 hours before inoculation of sporozoites.
# Four-week-old male CD-1 mice, purchased from Charles River and weighing about 16 to about 17 grams were placed 5 per cage and allowed to acclimate for 4 days before being treated and then inoculated with sporozoites. They were fed food and water ad-lib and maintained at 76° F. with 12 hour light and 12 hour darkness. The cages and water bottles were changed biweekly. The mice are weighed on Days 0, 3 and 6 then biweekly when blood films were taken.
# Plasmodium yoelii (17×) was used to infect mice that will be used to infect the mosquitoes.
# Mice were given a single dose of test compound 4 hours before being inoculated intraperitoneally with 2.5×10^5 sporozoites of Plasmodium yoelii on Day 0. Whole body weights were taken on Day 0 and Day 6 then twice a week for 31 days. A blood film was taken on Day 5 and then twice a week for 31 days. Mice loosing greater than about 20% of their body weight were sacrificed. All mice alive on Day 31 with no parasites in a blood film were considered cured. Donor mice used to infect the mosquitoes were infected with 2.5×10^4 parasitized erythrocytes. The mosquitoes were allowed to feed on these malaria-infected mice on Day 4 of their infection when the parasitemia was low.
# A compound was considered active against either the sporozoite or the EE stage if no parasites were found in the blood films taken on Day 5 or on subsequent blood films taken weekly for 31 days.
# Mice alive on Day 31 with no parasites found in any blood films were considered cured.
# P. vivax = conditions: cited from earlier work
# Plasmodium falciparum = conditions: cited from earlier work
Structure (SMILES),Day of Parasitemia (P. cynomolgi sporozoites; 10 mg/kg IM) [days],"Result (P. cynomolgi sporozoites; 10 mg/kg IM, 10 mg/kg)","Day of Parasitemia (P. cynomolgi sporozoites; 30 mg/kg IM, 30 mg/kg)","Result (delay the parasitemia) (P. cynomolgi sporozoites; 30 mg/kg IM, 30 mg/kg)",melting point,Sediment ([1]; dosage 10 mg/kg),Solubility ([1]; dosage 10 mg/kg),Supernatant ([1]; dosage 10 mg/kg),Sediment ([1]; dosage 30 mg/kg),Solubility ([1]; dosage 30 mg/kg),Supernatant ([1]; dosage 30 mg/kg),Minimum Protective Dose Against P. yoelii (Plasmodium yoelii (17×)) [mg/kg],Activity against primary exoerythrocytic forms (P. vivax),Activity against primary exoerythrocytic forms (Plasmodium falciparum)
"CC(C)N1C(=O)C(=O)N=C1NC(=N)Nc1ccc(Cl)c(Cl)c1 [Compound 3, N-(3,4-dichlorophenyl)-N′-(1-isopropyl-4,5-dioxoimidazolidin-2-ylidene)guanidine]",8,not protected; also recorded: No activity,15 days and 20 days,7 days and 12 days and did not completely protect the monkeys from malaria,230 °C and 233 °C,None,Good,Yellow clear,None,Moderate,Yellow turbid,>160,,
CC(C)NC(=N)NC(=N)Nc1ccc(Cl)c(Cl)c1 [chlorproguanil],,,,,,,,,,,,,highly active,highly active
